Results from article PMC9851200, “Multiparameter phenotypic screening for endogenous TFEB and TFE3 translocation identifies novel chemical series modulating lysosome function” (Autophagy, 2022).
pKd: −log10 of the molar value. Read-outs that look alike come from different tables or passages of the source.

Tests used:
[1] = target: T1, cellular kinases of SH-SY5Y cells (Homo sapiens, UniProt Q96PY6); experiment: biochemical; type: binding; details: 2µM; SH-SY5Y cells; Labeling Site Lys2; DIKSQNIFLTK; read-out: KiNativ in-cell binding, % Inhibition, NEK1
T1 construct: endogenous in cells; host or cells: SH-SY5Y
Description: (§1) As KINOMEscan is an in vitro assay, and as different cell types have variable kinase expression profiles we sought to determine the kinase binding profile in our SH-SY5Y TFEB-relocalization cell model. […] Bound kinases were pulled down and analyzed by mass spectrometry to determine the in situ kinase binding profile for each compound.

[2] = target: cellular kinases of SH-SY5Y cells (Homo sapiens, UniProt Q96RR4); experiment: biochemical; type: binding; details: 2µM, SH-SY5Y cells
Description: as §1

[3] = target: cellular kinases of SH-SY5Y cells (Homo sapiens, UniProt O14965); experiment: biochemical; type: binding; details: 2µM, SH-SY5Y cells, read-out: KiNativ in-cell binding, % Inhibition, AURKA/AurA
Description: as §1

[4] = target: T2, cellular kinases of SH-SY5Y cells (Homo sapiens, UniProt P52564); experiment: biochemical; type: binding; details: 2µM, SH-SY5Y cells; for inhibition at 2 µM: read-out: KiNativ in-cell binding, % Inhibition, MAP2K6
T2 sequence (P52564 1-334): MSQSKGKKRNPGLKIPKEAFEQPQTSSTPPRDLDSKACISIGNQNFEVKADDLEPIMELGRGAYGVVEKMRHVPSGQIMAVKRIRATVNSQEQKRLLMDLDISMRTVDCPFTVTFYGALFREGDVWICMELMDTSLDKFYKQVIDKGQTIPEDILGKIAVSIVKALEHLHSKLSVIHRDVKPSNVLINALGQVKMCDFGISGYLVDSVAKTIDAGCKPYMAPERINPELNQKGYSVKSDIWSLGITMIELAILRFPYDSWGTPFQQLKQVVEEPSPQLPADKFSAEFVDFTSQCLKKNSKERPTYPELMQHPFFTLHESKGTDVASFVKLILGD
Description: as §1

[5] = target: T3, cellular kinases of SH-SY5Y cells (Homo sapiens, UniProt Q07912); experiment: biochemical; type: binding; details: 2µM, SH-SY5Y cells, read-out: KiNativ in-cell binding, % Inhibition, TNK2/ACK
T3 construct: endogenous in cells; host or cells: SH-SY5Y
Description: as §1

[6] = target: T4, cellular kinases of SH-SY5Y cells (Homo sapiens, UniProt Q7RTN6); experiment: biochemical; type: binding; details: 2µM; SH-SY5Y cells; Labeling Site Activation Loop; YSVKVLPWLSPEVLQQNLQGYDAK; read-out: KiNativ in-cell binding, % Inhibition, STRADA
T4 construct: endogenous in cells; host or cells: SH-SY5Y
Description: as §1

[7] = target: cellular kinases of SH-SY5Y cells (Homo sapiens, UniProt P51617); experiment: biochemical; type: binding; details: 2µM; SH-SY5Y cells; labeling site Lys2; peptide AIQFLHQDSPSLIHGDIKSSNVLLDER
Description: as §1

[8] = target: T5, cellular kinases of SH-SY5Y cells (Homo sapiens, UniProt P51957); experiment: biochemical; type: binding; details: 2µM; SH-SY5Y cells; Labeling Site Lys2; DLKTQNVFLTR; read-out: KiNativ in-cell binding, % Inhibition, NEK4
T5 construct: endogenous in cells; host or cells: SH-SY5Y
Description: as §1

[9] = target: cellular kinases of SH-SY5Y cells (Homo sapiens, UniProt Q00535); experiment: biochemical; type: binding; details: 2µM, SH-SY5Y cells, read-out: KiNativ in-cell binding, % Inhibition, CDK5
Description: as §1

[10] = target: T6, cellular kinases of SH-SY5Y cells (Homo sapiens, UniProt Q86UX6); experiment: biochemical; type: binding; details: 2µM; SH-SY5Y cells; Labeling Site Lys2; DVKPDNILLDER; read-out: KiNativ in-cell binding, % Inhibition, STK32C/YANK3
T6 construct: endogenous in cells; host or cells: SH-SY5Y
Description: as §1

[11] = target: T7, cellular kinases of SH-SY5Y cells (Homo sapiens, UniProt Q8IZL9); experiment: biochemical; type: binding; details: 2µM; SH-SY5Y cells; Labeling Site Lys2; DLKPANLLISASGQLK; read-out: KiNativ in-cell binding, % Inhibition, CDK20
T7 construct: endogenous in cells; host or cells: SH-SY5Y
Description: as §1

PRKD1 = target: T8, PRKD1 (Homo sapiens, UniProt Q15139); experiment: PRKD1 binding KD (Table S3); details: relation sign
T8 sequence (Q15139 1-912): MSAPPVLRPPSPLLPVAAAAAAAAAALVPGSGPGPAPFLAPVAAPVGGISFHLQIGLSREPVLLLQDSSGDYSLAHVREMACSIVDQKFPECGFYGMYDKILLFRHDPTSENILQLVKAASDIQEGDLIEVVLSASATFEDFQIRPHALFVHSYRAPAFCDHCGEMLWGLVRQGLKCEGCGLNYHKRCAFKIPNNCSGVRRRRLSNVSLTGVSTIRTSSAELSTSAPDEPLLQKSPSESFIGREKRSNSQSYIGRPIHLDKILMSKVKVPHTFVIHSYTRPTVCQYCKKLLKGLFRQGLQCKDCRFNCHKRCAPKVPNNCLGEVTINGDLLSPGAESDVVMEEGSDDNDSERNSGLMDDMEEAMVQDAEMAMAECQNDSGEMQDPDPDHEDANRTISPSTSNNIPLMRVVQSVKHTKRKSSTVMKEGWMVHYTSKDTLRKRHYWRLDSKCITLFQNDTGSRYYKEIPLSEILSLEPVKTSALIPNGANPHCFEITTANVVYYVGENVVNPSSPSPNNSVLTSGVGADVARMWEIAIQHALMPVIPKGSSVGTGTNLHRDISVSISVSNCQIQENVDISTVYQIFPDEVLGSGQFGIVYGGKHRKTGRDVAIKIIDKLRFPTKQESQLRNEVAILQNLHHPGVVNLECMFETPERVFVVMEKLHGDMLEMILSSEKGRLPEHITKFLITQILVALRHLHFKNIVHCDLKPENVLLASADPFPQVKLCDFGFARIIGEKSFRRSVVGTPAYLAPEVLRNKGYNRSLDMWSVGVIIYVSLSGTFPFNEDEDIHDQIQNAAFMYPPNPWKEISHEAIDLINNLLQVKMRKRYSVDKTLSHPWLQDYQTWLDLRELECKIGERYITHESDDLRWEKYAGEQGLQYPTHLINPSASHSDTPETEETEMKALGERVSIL
Description: Supplement KAUP_A_2095834_SM5251.zip/Supplementary Tables R7.xlsx, sheet "Table S3 - Analogues"

Sequence of cellular kinases of SH-SY5Y cells (Homo sapiens, UniProt O14965) (O14965 whole entry): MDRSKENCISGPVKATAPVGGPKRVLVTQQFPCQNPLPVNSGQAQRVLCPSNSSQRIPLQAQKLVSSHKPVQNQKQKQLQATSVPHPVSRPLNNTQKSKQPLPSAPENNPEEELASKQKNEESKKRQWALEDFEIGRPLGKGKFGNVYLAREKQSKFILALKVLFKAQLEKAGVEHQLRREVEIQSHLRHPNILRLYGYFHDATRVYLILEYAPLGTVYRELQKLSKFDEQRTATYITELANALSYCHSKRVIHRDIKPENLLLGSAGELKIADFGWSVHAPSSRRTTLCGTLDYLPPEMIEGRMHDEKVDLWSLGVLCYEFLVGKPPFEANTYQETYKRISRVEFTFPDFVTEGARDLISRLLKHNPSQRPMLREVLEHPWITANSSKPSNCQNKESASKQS
Sequence of cellular kinases of SH-SY5Y cells (Homo sapiens, UniProt Q96RR4) (Q96RR4 whole entry): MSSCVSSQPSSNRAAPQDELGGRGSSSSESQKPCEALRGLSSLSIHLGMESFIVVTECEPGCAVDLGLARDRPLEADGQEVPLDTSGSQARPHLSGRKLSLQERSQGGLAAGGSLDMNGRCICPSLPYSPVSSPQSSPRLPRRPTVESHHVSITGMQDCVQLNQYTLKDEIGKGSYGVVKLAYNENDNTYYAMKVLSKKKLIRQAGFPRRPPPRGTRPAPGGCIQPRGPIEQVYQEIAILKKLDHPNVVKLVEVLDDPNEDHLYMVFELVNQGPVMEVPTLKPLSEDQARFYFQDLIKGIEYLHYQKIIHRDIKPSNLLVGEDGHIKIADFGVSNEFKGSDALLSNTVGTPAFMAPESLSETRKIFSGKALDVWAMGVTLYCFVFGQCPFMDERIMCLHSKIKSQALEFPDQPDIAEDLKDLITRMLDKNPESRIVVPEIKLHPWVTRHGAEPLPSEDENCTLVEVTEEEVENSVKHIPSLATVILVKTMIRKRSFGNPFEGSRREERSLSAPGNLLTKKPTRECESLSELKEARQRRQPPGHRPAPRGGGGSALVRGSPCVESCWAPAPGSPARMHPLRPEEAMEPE
T3 sequence (Q07912 whole entry): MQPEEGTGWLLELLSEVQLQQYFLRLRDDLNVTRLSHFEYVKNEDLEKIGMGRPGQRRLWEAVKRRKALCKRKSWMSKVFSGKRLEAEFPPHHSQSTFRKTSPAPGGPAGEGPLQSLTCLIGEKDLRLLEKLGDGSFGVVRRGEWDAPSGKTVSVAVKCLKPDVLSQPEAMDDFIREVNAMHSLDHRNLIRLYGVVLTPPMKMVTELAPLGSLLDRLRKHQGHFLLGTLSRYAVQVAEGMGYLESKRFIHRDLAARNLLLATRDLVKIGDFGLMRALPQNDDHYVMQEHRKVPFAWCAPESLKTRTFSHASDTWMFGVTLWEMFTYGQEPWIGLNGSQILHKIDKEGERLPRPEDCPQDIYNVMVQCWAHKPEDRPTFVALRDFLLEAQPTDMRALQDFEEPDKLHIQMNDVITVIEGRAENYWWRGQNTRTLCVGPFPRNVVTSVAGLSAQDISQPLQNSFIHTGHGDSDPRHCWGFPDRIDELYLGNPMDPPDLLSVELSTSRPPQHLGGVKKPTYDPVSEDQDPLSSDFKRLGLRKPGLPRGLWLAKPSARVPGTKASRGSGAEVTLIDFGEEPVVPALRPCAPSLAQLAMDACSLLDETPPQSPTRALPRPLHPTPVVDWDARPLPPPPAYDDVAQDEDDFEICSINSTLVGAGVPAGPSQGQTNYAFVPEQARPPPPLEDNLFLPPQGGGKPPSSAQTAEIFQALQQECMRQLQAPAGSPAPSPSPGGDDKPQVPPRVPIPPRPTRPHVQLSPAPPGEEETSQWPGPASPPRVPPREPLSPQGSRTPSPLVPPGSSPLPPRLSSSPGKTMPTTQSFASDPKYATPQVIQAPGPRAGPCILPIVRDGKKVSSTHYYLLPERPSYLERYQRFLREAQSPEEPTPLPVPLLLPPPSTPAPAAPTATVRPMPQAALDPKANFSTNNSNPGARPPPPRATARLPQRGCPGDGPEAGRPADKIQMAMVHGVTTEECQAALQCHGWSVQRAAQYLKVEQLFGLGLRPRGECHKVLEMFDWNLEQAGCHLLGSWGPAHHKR
Sequence of cellular kinases of SH-SY5Y cells (Homo sapiens, UniProt Q00535) (Q00535 whole entry): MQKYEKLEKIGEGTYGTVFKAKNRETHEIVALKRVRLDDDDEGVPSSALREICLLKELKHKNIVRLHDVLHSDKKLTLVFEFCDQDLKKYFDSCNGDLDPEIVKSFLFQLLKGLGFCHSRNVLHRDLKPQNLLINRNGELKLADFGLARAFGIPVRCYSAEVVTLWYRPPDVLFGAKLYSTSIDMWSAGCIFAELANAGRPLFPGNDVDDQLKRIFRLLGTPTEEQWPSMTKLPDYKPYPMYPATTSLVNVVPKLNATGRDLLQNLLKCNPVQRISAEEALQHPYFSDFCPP
T1 sequence (Q96PY6 whole entry): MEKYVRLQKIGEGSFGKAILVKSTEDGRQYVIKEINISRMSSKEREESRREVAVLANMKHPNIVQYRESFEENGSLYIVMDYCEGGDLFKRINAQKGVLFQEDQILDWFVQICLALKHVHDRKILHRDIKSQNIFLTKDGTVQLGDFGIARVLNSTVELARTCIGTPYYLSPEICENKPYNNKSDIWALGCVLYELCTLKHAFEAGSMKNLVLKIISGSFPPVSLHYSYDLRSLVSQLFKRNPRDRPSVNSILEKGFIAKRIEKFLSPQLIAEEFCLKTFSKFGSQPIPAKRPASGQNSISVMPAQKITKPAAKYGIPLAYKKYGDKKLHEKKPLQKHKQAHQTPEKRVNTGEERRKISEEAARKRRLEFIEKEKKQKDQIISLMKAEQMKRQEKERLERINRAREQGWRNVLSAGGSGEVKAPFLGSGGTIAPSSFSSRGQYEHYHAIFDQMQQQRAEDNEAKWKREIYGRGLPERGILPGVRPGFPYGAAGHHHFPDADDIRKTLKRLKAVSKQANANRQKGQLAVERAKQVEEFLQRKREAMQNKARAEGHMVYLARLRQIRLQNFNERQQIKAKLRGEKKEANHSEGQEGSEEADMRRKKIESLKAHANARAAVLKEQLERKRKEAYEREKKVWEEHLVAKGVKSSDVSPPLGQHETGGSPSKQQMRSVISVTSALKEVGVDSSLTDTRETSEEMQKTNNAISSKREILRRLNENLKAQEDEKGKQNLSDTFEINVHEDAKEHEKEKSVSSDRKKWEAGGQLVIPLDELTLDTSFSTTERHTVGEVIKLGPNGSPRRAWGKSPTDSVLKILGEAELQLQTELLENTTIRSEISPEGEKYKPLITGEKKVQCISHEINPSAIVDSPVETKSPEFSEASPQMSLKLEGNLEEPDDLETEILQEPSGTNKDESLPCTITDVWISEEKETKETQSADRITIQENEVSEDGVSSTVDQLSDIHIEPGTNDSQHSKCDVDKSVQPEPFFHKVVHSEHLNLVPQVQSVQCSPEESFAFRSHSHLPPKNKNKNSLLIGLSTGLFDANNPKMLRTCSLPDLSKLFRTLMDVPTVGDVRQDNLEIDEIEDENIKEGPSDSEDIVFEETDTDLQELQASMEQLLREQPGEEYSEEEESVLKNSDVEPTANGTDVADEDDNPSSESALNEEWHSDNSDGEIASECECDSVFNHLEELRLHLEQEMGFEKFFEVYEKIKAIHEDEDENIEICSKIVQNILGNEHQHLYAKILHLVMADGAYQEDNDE
T5 sequence (P51957 whole entry): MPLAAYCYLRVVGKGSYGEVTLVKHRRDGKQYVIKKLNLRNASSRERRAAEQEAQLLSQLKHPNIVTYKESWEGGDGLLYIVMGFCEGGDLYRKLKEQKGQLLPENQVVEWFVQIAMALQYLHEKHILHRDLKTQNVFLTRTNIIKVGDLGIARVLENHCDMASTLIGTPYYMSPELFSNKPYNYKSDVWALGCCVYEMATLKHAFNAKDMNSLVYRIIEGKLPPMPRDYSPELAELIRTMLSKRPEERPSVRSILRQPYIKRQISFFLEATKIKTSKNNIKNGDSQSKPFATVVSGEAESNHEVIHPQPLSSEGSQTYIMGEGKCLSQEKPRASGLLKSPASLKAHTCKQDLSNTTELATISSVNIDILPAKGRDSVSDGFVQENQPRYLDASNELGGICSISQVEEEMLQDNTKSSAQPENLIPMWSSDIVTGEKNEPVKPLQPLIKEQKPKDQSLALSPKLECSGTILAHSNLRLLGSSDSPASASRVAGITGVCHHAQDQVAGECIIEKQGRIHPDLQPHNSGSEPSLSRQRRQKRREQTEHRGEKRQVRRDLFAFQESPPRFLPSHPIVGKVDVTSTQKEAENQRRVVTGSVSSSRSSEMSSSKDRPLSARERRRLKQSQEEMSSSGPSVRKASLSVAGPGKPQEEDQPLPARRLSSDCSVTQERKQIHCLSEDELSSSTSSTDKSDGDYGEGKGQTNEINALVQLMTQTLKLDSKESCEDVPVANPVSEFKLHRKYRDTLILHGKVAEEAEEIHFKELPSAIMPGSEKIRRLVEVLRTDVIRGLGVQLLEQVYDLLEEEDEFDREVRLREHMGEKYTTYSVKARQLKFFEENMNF
T7 sequence (Q8IZL9 whole entry): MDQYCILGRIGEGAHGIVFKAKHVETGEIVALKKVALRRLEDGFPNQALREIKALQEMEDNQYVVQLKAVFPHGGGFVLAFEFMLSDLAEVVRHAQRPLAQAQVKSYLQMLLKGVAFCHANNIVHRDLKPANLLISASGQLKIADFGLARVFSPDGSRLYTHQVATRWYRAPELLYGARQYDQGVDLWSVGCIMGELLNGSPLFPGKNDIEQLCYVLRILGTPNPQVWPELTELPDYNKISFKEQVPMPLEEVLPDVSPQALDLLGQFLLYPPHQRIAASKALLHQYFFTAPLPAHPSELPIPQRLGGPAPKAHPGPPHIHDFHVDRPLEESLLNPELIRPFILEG

Structure (SMILES) | inhibition at 2 µM [1] | inhibition at 2 µM ([2]; Labeling Site Lys1, LAYNENDNTYYAMKVLSK, read-out: KiNativ in-cell binding, % Inhibition, CaMKK2) | KiNativ in-cell binding, CaMKK2 ([2]; labeling site Lys2, peptide DIKPSNLLVGEDGHIK) | inhibition at 2 µM ([3]; Labeling Site Lys1, FILALKVLFK) | inhibition at 2 µM ([3]; Labeling Site Lys2, DIKPENLLLGSAGELK) | inhibition at 2 µM ([4]; Labeling Site Activation Loop, MCDFGISGYLVDSVAKTIDAGCKPYMAPER) | inhibition at 2 µM ([4]; Labeling Site Lys1, HVPSGQIMAVKR) | KiNativ in-cell binding, MAP2K6 ([4]; labeling site Lys2, peptide DVKPSNVLINALGQVK) | inhibition at 2 µM ([5]; Labeling Site Activation Loop, KVPFAWCAPESLK) | inhibition at 2 µM ([5]; Labeling Site Lys1, TVSVAVKCLKPDVLSQPEAMDDFIR) | inhibition at 2 µM [6] | KiNativ in-cell binding, IRAK1 [7] | inhibition at 2 µM [8] | inhibition at 2 µM ([9]; Labeling Site Lys1, NRETHEIVALKR) | inhibition at 2 µM ([9]; Labeling Site Lys2, DLKPQNLLINR) | inhibition at 2 µM [10] | inhibition at 2 µM [11] | pKd (PRKD1)
Cc1cccc(-c2nc(Nc3ccc4ncsc4c3)c3ccccc3n2)n1 [NK140] | -13% | -64% | -31.8 | 8.2% | 18% | -15.9% | 15.4% | 17.8 | -3.4% | 12.9% | 48.6% | -26.5 | -36% | -44.9% | -39% | -34.7% | 9.5% | –
Cc1cccc(-c2nc(Nc3ccncc3)c3ccccc3n2)n1 [NK215] | – | – | – | – | – | – | – | – | – | – | – | – | – | – | – | – | – | 7.89
